Test results published in patent publication US6844306B2, “Water-soluble, chlorhexidine-containing compositions and use thereof” (Degussa AG, priority 2000, dated 2005).

How the values were obtained:
[1] = Text: Ion concentrations exceeding the maximum values established by the solubility product should lead to precipitations.
[2] = cited from earlier work

With Br.Br.N=C(NCCCCCCNC(=N)NC(=N)Nc1ccc(Cl)cc1)NC(=N)Nc1ccc(Cl)cc1 [chlorhexidine dibromide] the “bromide ions in saturated chlorhexidine bromide solution” value [1] was about 450 mg per liter and the “chlorhexidine dication in saturated chlorhexidine bromide solution” value [1] was “approximately 1400 mg per liter”.
In the case of CCCCCCCCCCCCCCCC[N+](C)(C)C.[Br-] [cetrimide, N-cetyl-N,N,N-trimethylammonium bromide], the water solubility [2] is listed as “approx. 67 g/l”.
